Assay results: patent US4783443A, “Amino acyl cephalosporin derivatives” (The University of Chicago, priority 1986, dated 1988)
≈ marks a conversion by molar mass, not a printed value.

Key:
Type in all cases: cell-based
[1] = test system: Enterobacter areogenes; assay: Minimum inhibitory concentration (MIC); settings: Gram-negative
Text: (§1) The antibacterial effects of compounds of the invention have been assessed by determination of the minimum inhibitory concentration (M.I.C.) value against a variety of Gram-negative and -positive bacteria. The microbial susceptibility data for four compounds, together with those for the antibacterial dipeptide beta-Cl-LAla-beta-Cl-LAla, are given in Table I.
(§2) in uM to facilitate a meaningful comparison of the approximate MICs among
(§3) the tested compounds; an appreciation of the MIC values in ug/mL can be
(§4) obtained by multiplying each value (μM) by 0.55

[2] = test system: Enterobacter cloacae; assay: Minimum inhibitory concentration (MIC); settings: Gram-negative, read-out: Minimum Inhibitory Concentration
Text: as §1, §2, §3, §4

[3] = test system: Escherichia coli CR; assay: Minimum inhibitory concentration (MIC); settings: Escherichia coli CR; read-out: Minimum Inhibitory Concentration
Text: as §1, §2, §3, §4

[4] = test system: Escherichia coli DB4548; assay: Minimum inhibitory concentration (MIC)
Text: as §1, §2, §3, §4

[5] = test system: Escherichia coli JSR-O; assay: Minimum inhibitory concentration (MIC); settings: Escherichia coli JSR-O; parental strain; read-out: Minimum Inhibitory Concentration
Text: as §1, §2, §3, §4

[6] = test system: Hemophilus influenzae 236; assay: Minimum inhibitory concentration (MIC); settings: Haemophilus influenzae
Text: as §1, §2, §3, §4

[7] = test system: Hemophilus influenzae 238; assay: Minimum inhibitory concentration (MIC); settings: Haemophilus influenzae
Text: as §1, §2, §3, §4

[8] = test system: Hemophilus influenzae 487; assay: Minimum inhibitory concentration (MIC); settings: Haemophilus influenzae, possesses a betalactamase
Text: as §1, §2, §3, §4

[9] = test system: Klebsiella pneumoniae; assay: Minimum inhibitory concentration (MIC); settings: Gram-negative
Text: as §1, §2, §3, §4

[10] = test system: Morganella morganii; assay: Minimum inhibitory concentration (MIC); settings: Gram-negative
Text: as §1, §2, §3, §4

[11] = test system: Psuedomonas aeruginosa; assay: Minimum inhibitory concentration (MIC); settings: Gram-negative
Text: as §1, §2, §3, §4

[12] = test system: Salmonella typhimurium LT 2; assay: Minimum inhibitory concentration (MIC); settings: Salmonella enterica, Gram-negative
Text: as §1, §2, §3, §4

[13] = test system: Salmonella typhimurium; assay: Minimum inhibitory concentration (MIC); settings: Salmonella enterica, Gram-negative
Text: as §1, §2, §3, §4

[14] = test system: Serratia marcescens; assay: Minimum inhibitory concentration (MIC); settings: Gram-negative
Text: as §1, §2, §3, §4

[15] = test system: Shigella flexneri; assay: Minimum inhibitory concentration (MIC); settings: Gram-negative
Text: as §1, §2, §3, §4

[16] = test system: Staphylococcus aureus H-2690-8^R; assay: Minimum inhibitory concentration (MIC); settings: possesses a betalactamase
Text: as §1, §2, §3, §4

[17] = test system: Staphylococcus aureus PSL-13 Pen^R; assay: Minimum inhibitory concentration (MIC); settings: possesses a betalactamase
Text: as §1, §2, §3, §4

[18] = test system: Staphylococcus aureus PSL-14 Pen^R; assay: Minimum inhibitory concentration (MIC); settings: possesses a betalactamase
Text: as §1, §2, §3, §4

[19] = test system: Staphylococcus aureus PSL-15 Pen^R; assay: Minimum inhibitory concentration (MIC); settings: possesses a betalactamase
Text: as §1, §2, §3, §4

[20] = test system: Staphylococcus aureus PSL-16 Pen^R; assay: Minimum inhibitory concentration (MIC); settings: possesses a betalactamase
Text: as §1, §2, §3, §4

[21] = test system: Staphylococcus aureus T-4624-8 Pen^R; assay: Minimum inhibitory concentration (MIC); settings: possesses a betalactamase
Text: as §1, §2, §3, §4

[22] = test system: Streptococcus agalactiae; assay: Minimum inhibitory concentration (MIC); settings: Gram positive
Text: as §1, §2, §3, §4

[23] = test system: Streptococcus faecalis; assay: Minimum inhibitory concentration (MIC); settings: Enterococcus faecalis; Streptococcus faecalis; Gram positive; read-out: Minimum Inhibitory Concentration
Text: as §1, §2, §3, §4

[24] = test system: Escherichia coli JSR-O Cl-Pep^R; assay: Minimum inhibitory concentration (MIC); settings: Escherichia coli, read-out: Minimum Inhibitory Concentration
Text: as §1, §2, §3, §4
^(g) This ia an E. coli JSRO strain selected for resistance to the
A comparison of the data for E. coli strains JSR-O and JSR-O Cl-Pep^R is of special interest. E. coli Cl-Pep^R is an E. coli JSR-O mutant which was selected for resistance to the dipeptide (f). […] Note that the MIC values for (d) and (e) against E. coli Cl-Pep^R (100 and 50 μM, respectively) are quite similar.

[25] = test system: Escherichia coli JSR-O pBR322; assay: Minimum inhibitory concentration (MIC); settings: read-out: Minimum Inhibitory Concentration
Text: as §1, §2, §3, §4
^(i) Contains the plasmid gene encoding the TEM betalactamase.

[26] = test system: Corynebacterium JKM-4754; assay: Minimum inhibitory concentration (MIC); settings: JKM4754; Corynebacterium JKM-4754; resistant to cephalothin; read-out: Minimum Inhibitory Concentration
Text: as §1, §2, §3, §4
(§5) ^(j) Resistant to cephalothin (MIC >200 uM);

[27] = test system: Corynebacterium JKR-2285; assay: Minimum inhibitory concentration (MIC); settings: JKR2285; Corynebacterium JKR-2285; resistant to cephalothin; read-out: Minimum Inhibitory Concentration
Text: as §1, §2, §3, §4, §5

[28] = test system: Escherichia coli Ceph^R; assay: Minimum inhibitory concentration (MIC); settings: Escherichia coli, read-out: Minimum Inhibitory Concentration
Text: as §1, §2, §3, §4, §5

[29] = test system: Staphylococcus epidermidis (P^R M^R); assay: Minimum inhibitory concentration (MIC); settings: no strain number
Text: as §1, §2, §3, §4
(§6) ^(k) P and M refer to penicillin and methicillin, respectively.

[30] = test system: Staphylococcus epidermidis 1239(P^R M^R); assay: Minimum inhibitory concentration (MIC)
Text: as §1, §2, §3, §4, §6

[31] = test system: Staphylococcus epidermidis MO1554(P^S M^S); assay: Minimum inhibitory concentration (MIC); settings: Staphylococcus epidermidis MO1554 (penicillin- and methicillin-sensitive, P^S M^S)
Text: as §1, §2, §3, §4, §6

[32] = test system: Gram-negative and -positive bacteria; assay: Antibacterial activity, general trends of the MIC panel of Table I; settings: E. cloacae, all of the susceptible E. coli strains, H. influenzae 487, all of the S. aureus strains
Text: as §1

Row | SMILES | MIC [1] [µM] | MIC [2] [µM] | MIC [3] [µM] | MIC [4] [µM] | MIC [5] [µM] | MIC [6] [µM] | MIC [7] [µM] | MIC [8] [µM] | MIC [9] [µM] | MIC [10] [µM] | MIC [11] [µM] | MIC [12] [µM] | MIC [13] [µM] | MIC [14] [µM] | MIC [15] [µM] | MIC [16] [µM] | MIC [17] [µM] | MIC [18] [µM] | MIC [19] [µM] | MIC [20] [µM] | other results
1 | C[C@H](N)C(=O)OCC1=C(C(=O)O)N2C(=O)[C@@H](NC(=O)Cc3cccs3)[C@H]2SC1 [(b), 7-beta-(2-thienylacetamido)-3-(L-alanyloxymethyl)-3-cephem-4-carboxylic acid] | > 200 | > 200 | 100 (≈ 42.5 µg/mL) | 50 (≈ 21.3 µg/mL) | 100 (≈ 42.5 µg/mL) | 50 (≈ 21.3 µg/mL) | ≤ 0.78 | 50 (≈ 21.3 µg/mL) | > 200 | 100 (≈ 42.5 µg/mL) | > 200 | 50 (≈ 21.3 µg/mL) | > 200 | > 200 | 100 (≈ 42.5 µg/mL) | 100 (≈ 42.5 µg/mL) | 200 (≈ 85.1 µg/mL) | > 200 | 100 (≈ 42.5 µg/mL) | > 200 | MIC [21]: 100 µM (≈ 42.5 µg/mL); MIC [22]: ≤ 0.78 µM; MIC [23]: > 100 µM; MIC [24]: > 200 µM; MIC [25]: 50 µM (≈ 21.3 µg/mL); MIC [26]: > 200 µM; MIC [27]: > 200 µM; MIC [28]: > 200 µM; MIC [29]: 1.56 µM (≈ 0.664 µg/mL); MIC [30]: ≤ 0.78 µM; MIC [31]: ≤ 0.78 µM; sensitivity observed [32]: no activity was seen
2 | N[C@@H](CCl)C(=O)OCC1=C(C(=O)O)N2C(=O)[C@@H](NC(=O)Cc3cccs3)[C@H]2SC1 [(c), 7-beta-(2-thienylacetamido)-3(beta-chloro-L-alanyloxymethyl)-3-cephem-4-carboxylic acid] | > 200 | 100 (≈ 46 µg/mL) | 50 (≈ 23 µg/mL) | 50 (≈ 23 µg/mL) | 100 (≈ 46 µg/mL) | 25 (≈ 11.5 µg/mL) | ≤ 0.78 | 25 (≈ 11.5 µg/mL) | > 200 | 100 (≈ 46 µg/mL) | > 200 | 25 (≈ 11.5 µg/mL) | 100 (≈ 46 µg/mL) | > 200 | 100 (≈ 46 µg/mL) | 6.25 (≈ 2.87 µg/mL) | 25 (≈ 11.5 µg/mL) | 25 (≈ 11.5 µg/mL) | 12.5 (≈ 5.75 µg/mL) | 255 (≈ 117 µg/mL) | MIC [21]: 6.25 µM (≈ 2.87 µg/mL); MIC [22]: ≤ 0.78 µM; MIC [23]: 200 µM (≈ 92 µg/mL); MIC [24]: > 200 µM; MIC [26]: > 200 µM; MIC [27]: > 200 µM; MIC [28]: > 200 µM; MIC [29]: ≤ 0.78 µM; MIC [30]: ≤ 0.78 µM; MIC [31]: ≤ 0.78 µM; sensitivity observed [32]: sensitivity was observed
